Assay results: PubChem BioAssay AID1918952 (Molecular Pharmacology Branch, DTP, NCI, 2023)

Tested on: LG0703-F948-PDC complex spheroid viability
Assay: Anticancer human tumor LG0703-F948-PDC patient-derived lung adenocarcinoma cell line growth inhibition
Conditions: for IC50: curve of first compound; for viability, T/C: stronger effect = lower value
Summary of the method: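 Drug combinations with the LSD1 inhibitor iadademstat tested on tumor cells co-cultured as spheroids with endothelial cells and mesenchymal stem cells. Concentrations descended in half-log increments from clinical Cmax or 10 microM.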

[1] = second compound 0.1 µM, first compound 0.00316 µM
[2] = second compound 0.1 µM, first compound 0.01 µM
[3] = second compound 0.1 µM, first compound 0.0316 µM
[4] = second compound 0.1 µM, first compound 0.1 µM
[5] = second compound 0.316 µM, first compound 0.00316 µM
[6] = second compound 0.316 µM, first compound 0.01 µM
[7] = second compound 0.316 µM, first compound 0.0316 µM
[8] = second compound 0.316 µM, first compound 0.1 µM
[9] = second compound 1 µM, first compound 0.00316 µM
[10] = second compound 1 µM, first compound 0.01 µM
[11] = second compound 1 µM, first compound 0.0316 µM
[12] = second compound 1 µM, first compound 0.1 µM
[13] = second compound 3.16 µM, first compound 0.00316 µM
[14] = second compound 3.16 µM, first compound 0.01 µM
[15] = second compound 3.16 µM, first compound 0.0316 µM
[16] = second compound 3.16 µM, first compound 0.1 µM
[17] = second compound 10 µM, first compound 0.00316 µM
[18] = second compound 10 µM, first compound 0.01 µM
[19] = second compound 10 µM, first compound 0.0316 µM
[20] = second compound 10 µM, first compound 0.1 µM
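Further: spheroids exposed to agents for seven days before readout.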
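Wherever viability, T/C is given: 100% = DMSO vehicle control wells as normalization base.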

COc1cc(Nc2ncc3c(n2)-c2ccc(Cl)cc2C(c2c(F)cccc2OC)=NC3)ccc1C(=O)O + NC1CC1c1ccc(-c2cccc(O)c2)cc1
IC50 (second compound 0.1 µM): 199 nM | IC50 (second compound 0.316 µM): 177 nM | IC50 (second compound 1 µM): 198 nM | IC50 (second compound 3.16 µM): 188 nM | IC50 (second compound 10 µM): 181 nM | viability, T/C [1]: 91.5% | viability, T/C [2]: 85.6% | viability, T/C [3]: 91.6% | viability, T/C [4]: 76.1% | viability, T/C (second compound 0.1 µM, first compound 0.316 µM): 32.1% | viability, T/C (second compound 0.1 µM, first compound 1 µM): 3.58% | viability, T/C [5]: 95.3% | viability, T/C [6]: 93.8% | viability, T/C [7]: 80.8% | viability, T/C [8]: 67.6% | viability, T/C (second compound 0.316 µM, first compound 0.316 µM): 33.5% | viability, T/C (second compound 0.316 µM, first compound 1 µM): 3.78% | viability, T/C [9]: 106% | viability, T/C [10]: 100% | viability, T/C [11]: 85.6% | viability, T/C [12]: 70.5% | viability, T/C (second compound 1 µM, first compound 0.316 µM): 36.3% | viability, T/C (second compound 1 µM, first compound 1 µM): 3.36% | viability, T/C [13]: 95.5% | viability, T/C [14]: 111% | viability, T/C [15]: 94.2% | viability, T/C [16]: 70.5% | viability, T/C (second compound 3.16 µM, first compound 0.316 µM): 33.1% | viability, T/C (second compound 3.16 µM, first compound 1 µM): 4.2% | viability, T/C [17]: 113% | viability, T/C [18]: 97.6% | viability, T/C [19]: 94.1% | viability, T/C [20]: 64.8% | viability, T/C (second compound 10 µM, first compound 0.316 µM): 34.8% | viability, T/C (second compound 10 µM, first compound 1 µM): 6.35%

Cn1ncnc1C1c2n[nH]c(=O)c3cc(F)cc(c23)NC1c1ccc(F)cc1 (stereo not given) + NC1CC1c1ccc(-c2cccc(O)c2)cc1
IC50 (second compound 0.1 µM): > 100 nM | IC50 (second compound 0.316 µM): > 100 nM | IC50 (second compound 1 µM): > 100 nM | IC50 (second compound 3.16 µM): > 100 nM | IC50 (second compound 10 µM): > 100 nM | viability, T/C (second compound 0.1 µM, first compound 0.000316 µM): 105% | viability, T/C (second compound 0.1 µM, first compound 0.001 µM): 114% | viability, T/C [1]: 94.9% | viability, T/C [2]: 100% | viability, T/C [3]: 108% | viability, T/C [4]: 125% | viability, T/C (second compound 0.316 µM, first compound 0.000316 µM): 113% | viability, T/C (second compound 0.316 µM, first compound 0.001 µM): 114% | viability, T/C [5]: 117% | viability, T/C [6]: 100% | viability, T/C [7]: 93.7% | viability, T/C [8]: 105% | viability, T/C (second compound 1 µM, first compound 0.000316 µM): 102% | viability, T/C (second compound 1 µM, first compound 0.001 µM): 112% | viability, T/C [9]: 120% | viability, T/C [10]: 109% | viability, T/C [11]: 111% | viability, T/C [12]: 106% | viability, T/C (second compound 3.16 µM, first compound 0.000316 µM): 119% | viability, T/C (second compound 3.16 µM, first compound 0.001 µM): 123% | viability, T/C [13]: 101% | viability, T/C [14]: 107% | viability, T/C [15]: 114% | viability, T/C [16]: 124% | viability, T/C (second compound 10 µM, first compound 0.000316 µM): 108% | viability, T/C (second compound 10 µM, first compound 0.001 µM): 101% | viability, T/C [17]: 104% | viability, T/C [18]: 100% | viability, T/C [19]: 100% | viability, T/C [20]: 99.8%

NS(=O)(=O)OCC1CC(n2ccc3c(NC4CCc5ccccc54)ncnc32)CC1O (stereo not given) + NC1CC1c1ccc(-c2cccc(O)c2)cc1
IC50 (second compound 0.1 µM): 683 nM | IC50 (second compound 0.316 µM): 582 nM | IC50 (second compound 1 µM): 559 nM | IC50 (second compound 3.16 µM): 559 nM | IC50 (second compound 10 µM): 302 nM | viability, T/C (second compound 0.1 µM, first compound 0.00949 µM): 101% | viability, T/C (second compound 0.1 µM, first compound 0.03 µM): 113% | viability, T/C (second compound 0.1 µM, first compound 0.0949 µM): 104% | viability, T/C (second compound 0.1 µM, first compound 0.3 µM): 75.2% | viability, T/C (second compound 0.1 µM, first compound 0.949 µM): 40.9% | viability, T/C (second compound 0.1 µM, first compound 3 µM): 19% | viability, T/C (second compound 0.316 µM, first compound 0.00949 µM): 118% | viability, T/C (second compound 0.316 µM, first compound 0.03 µM): 104% | viability, T/C (second compound 0.316 µM, first compound 0.0949 µM): 105% | viability, T/C (second compound 0.316 µM, first compound 0.3 µM): 73.9% | viability, T/C (second compound 0.316 µM, first compound 0.949 µM): 31.9% | viability, T/C (second compound 0.316 µM, first compound 3 µM): 21.6% | viability, T/C (second compound 1 µM, first compound 0.00949 µM): 107% | viability, T/C (second compound 1 µM, first compound 0.03 µM): 117% | viability, T/C (second compound 1 µM, first compound 0.0949 µM): 103% | viability, T/C (second compound 1 µM, first compound 0.3 µM): 68% | viability, T/C (second compound 1 µM, first compound 0.949 µM): 35.6% | viability, T/C (second compound 1 µM, first compound 3 µM): 18.6% | viability, T/C (second compound 3.16 µM, first compound 0.00949 µM): 110% | viability, T/C (second compound 3.16 µM, first compound 0.03 µM): 105% | viability, T/C (second compound 3.16 µM, first compound 0.0949 µM): 98.4% | viability, T/C (second compound 3.16 µM, first compound 0.3 µM): 70.4% | viability, T/C (second compound 3.16 µM, first compound 0.949 µM): 32.6% | viability, T/C (second compound 3.16 µM, first compound 3 µM): 16% | viability, T/C (second compound 10 µM, first compound 0.00949 µM): 107% | viability, T/C (second compound 10 µM, first compound 0.03 µM): 104% | viability, T/C (second compound 10 µM, first compound 0.0949 µM): 81.2% | viability, T/C (second compound 10 µM, first compound 0.3 µM): 50.8% | viability, T/C (second compound 10 µM, first compound 0.949 µM): 23.8% | viability, T/C (second compound 10 µM, first compound 3 µM): 12.6%
